The values below come from PMC4310329, “The length of a lantibiotic hinge region has profound influence on antimicrobial activity and host specificity” (Frontiers in Microbiology, 2015).

For assay [1], the system named is M. luteus. The experiment in a line: Agar well diffusion assay. Type of assay: cell-based, Micrococcus luteus. The settings on record: 20 °C; estimated from halo diameter by nisin standard curve, relative to wt. The protocol: (§1) L. lactis strains were cultured in M17 broth supplemented with 0.5% (w/v) glucose (GM17) or GM17 agar for genetic manipulation or in minimal expression medium (MEM) for protein expression at 30°C (Rink et al., [2005]). E. faecalis, S. aureus, S. pneumonia, and L. monocytogenes were grown in GM17 at 37°C or GM17 agar at different temperatures for agar diffusion assay. M. luteus was grown in Luria-Bertani broth shaken (200 rpm) at 30°C or LB agar at 20°C for agar diffusion assay. Bacillus strains were cultured in Brain Heart Infusion (BHI) shaken (200 rpm) or BHI agar at different temperatures for agar diffusion assay.
(§2) For the agar well diffusion assay, the same cultures as in the MIC value test were used and diluted 200 times with solid media. Identical sizes of wells (7.5 mm diameter) were made and 2 μg of hinge region analogs dissolved in 20 μl 0.05% acetic acid were added. The plates were incubated at different temperatures for at least 1 day until apparent halos appeared. For activity test at low temperature, the indicators were diluted in the same way but poured into smaller plates (52 mm diameter). The plates were incubated at 4°C overnight before the peptides were added. B. sporothermodurans IC4 and B. cereus 4153 were first incubated with the peptides at 4°C for 2 weeks then moved to 30°C and incubated overnight. The diameters of the halos were measured.
(§3) The antimicrobial activity of the hinge region analogs in solid media were tested by an agar well diffusion assay. The diameters of the halos were measured and the residual activity of the analogs were estimated according to the formula of the relationship between the concentration of nisin and the sizes of halos. We made use of the fact that the size of the halo is directly related to the log of nisin concentration. Of course this is an estimate of activity of the variants because any changes in diffusion of the variant bacteriocin or growth rates of indicator bacteria during the assay could also affect the size of the halo. (Table 5 and Supplementary Figure 1). The plates were shown in supplementary data (Supplementary Figures 2–8). […] And against L. lactis at 20°C, the inhibition zone was larger than nisin. […] The M. luteus grows quite fast at room temperature and only the +2 variant retained 55% of the activity of nisin. […]
(§4) To evaluate the activity of nisin on the agar plate, an agar well diffusion assay with gradient of nisin against Lactococcus lactis ( with two plasmids) was performed ( Supplementary Figur e 1 A). The diameter of the halos were measured (Supplementary Figure 1B). […]
(§5) the concentration of nisin is in liner relationship with diameter of the halos ( Supplementary Fi g u re 1C). According to the formula (1) , the relative activity of the peptides compared to nisin can be calculated b y the formula ( 2) .
(§6) Supplementary Figure 1. Relationship between concentration of nisin and diameter of the halos. (A) Agar well diffusion assay. Gradient concentration of nisin were made and dissolved in 30µl 0.05% acetic acid. Lactococcus lactis ( with two plasmids) was cultured overnight and diluted 250 times with GM17 agar before added to the plate. The final concentration of the cells was about 2×10^6 cells/milliliter. The plate was incubated for 1 da y. Concentrations of nisin were labeled. (B) log10 of the concentrati ons and diameters of the halo. (C) A linear curve w as made betw een t he diameters of the halo and log10s of the concentration of nisin. […]

Assay [2] has as its system B. sporothermodurans IC4. The experiment in a line: Agar well diffusion assay. Type of assay: cell-based, Bacillus sporothermodurans. The following applies: 30 °C; estimated from halo diameter by nisin standard curve, relative to wt. The protocol: as §1
as §2, with “B. sporothermodurans IC4 and B. cereus 4153 were first incubated with the peptides at 4°C for 2 weeks then moved to 30°C and incubated overnight.” left out
The antimicrobial activity of the hinge region analogs in solid media were tested by an agar well diffusion assay. The diameters of the halos were measured and the residual activity of the analogs were estimated according to the formula of the relationship between the concentration of nisin and the sizes of halos. […]
as §4
the concentration of nisin is in liner relationship with diameter of the halos ( Supplementary Fi g u re 1C). According to the formula (1) , the relative activity of the peptides compared to nisin can be calculated b y the formula ( 2) . […]

Assay [3] relates to L. monocytogenes. The experiment in a line: Agar well diffusion assay. The settings on record: estimated from halo diameter by nisin standard curve, relative to wt. Type of assay: cell-based, Listeria monocytogenes. The protocol:
as §1, §2, §3, §4, §5
(§7) Supplementary Figure 1. Relationship between concentration of nisin and diameter of the halos. (A) Agar well diffusion assay. Gradient concentration of nisin were made and dissolved in 30µl 0.05% acetic acid. Lactococcus lactis ( with two plasmids) was cultured overnight and diluted 250 times with GM17 agar before added to the plate. The final concentration of the cells was about 2×10^6 cells/milliliter. The plate was incubated for 1 da y. Concentrations of nisin were labeled. (B) log10 of the concentrati ons and diameters of the halo. (C) A linear curve w as made betw een t he diameters of the halo and log10s of the concentration of nisin.
(§8) (1 picture or pasted object on this page, not shown here)
(§9) Last Name a uthor 1 et al. Running Title
(§10) C = concentration of nisin d° = diameter of the halo of wild t ype […]

Assay [4] deals with E. faecalis VE14089. The experiment in a line: Agar well diffusion assay. Type of assay: cell-based, Enterococcus faecalis. The settings on record: estimated from halo diameter by nisin standard curve, relative to wt. The protocol: as §1, §2, §3, §4, §5, §7, §8, §9, §10
In assay [5] the test system is L. lactis MG1363. The experiment in a line: Agar well diffusion assay. Type of assay: cell-based, Lactococcus lactis. The following applies: relative to wt. The protocol: as §1, §2, §3, §4, §5, §7, §8, §9, §10
The test system of assay [6] is Bacillus cereus (L′29) 16. The assay can be described thus: MIC in liquid culture. Type of assay: cell-based. The settings on record: MIC value of nisin divided by that of the analog. The protocol: as §1
(§11) The indicator strains were cultured until OD (600 nm) reached 0.5. Before MIC value test, the culture was diluted 1000 times to make the concentration of cells around 5 × 10^5 per milliliter. The test was performed using a temperature controlled plate reader [Tecan200 (Tecan Group AG)] and 96 well plate (Greiner Bio-one). 180 μl indicator strain culture mixed with 20 μl hinge region analogs with final concentration from 0.031 μg/ml–32 μg/ml was incubated at 30°C or 37°C for 18 h. OD (600 nm) was checked every 30 min. For aerobic strains, 2 min of shaking was performed before every check. The concentration of peptide without observed growth of indicator strains was considered as the MIC value.

In assay [7] the test system is Bacillus cereus 4153. The assay can be described thus: MIC in liquid culture. Type of assay: cell-based. The settings on record: MIC value of nisin divided by that of the analog. As for the experimental part: as §1, §11
Assay [8] has as its system Staphylococcus aureus. The experiment in a line: MIC in liquid culture. Type of assay: cell-based. The following applies: MIC value of nisin divided by that of the analog. As for the experimental part: as §1, §11
Assay [9] concerns Streptococcus pneumoniae R6. The assay can be described thus: MIC in liquid culture. The settings on record: MIC value of nisin divided by that of the analog. In kind it is cell-based. The protocol: as §1, §11
Assay [10] concerns Micrococcus luteus. The experiment in a line: MIC in liquid culture. In kind it is cell-based. The following applies: MIC value of nisin divided by that of the analog. As for the experimental part: as §1, §11
Assay [11] deals with Enterococcus faecalis VE14089. The experiment in a line: MIC in liquid culture. Type of assay: cell-based. The following applies: MIC value of nisin divided by that of the analog. The protocol:
as §1, §11

In assay [12] the test system is Listeria monocytogenes. The experiment in a line: MIC in liquid culture. The following applies: MIC value of nisin divided by that of the analog. In kind it is cell-based. The protocol: as §1, §11
Assay [13] relates to Bacillus cereus 4147. The experiment in a line: MIC in liquid culture. Type of assay: cell-based. The following applies: MIC value of nisin divided by that of the analog. The protocol:
as §1, §11

The test system of assay [14] is Lactococcus lactis MG1363. The assay can be described thus: MIC in liquid culture. In kind it is cell-based. The following applies: MIC value of nisin divided by that of the analog. As for the experimental part: as §1, §11
Assay [15] concerns Bacillus cereus. The assay can be described thus: Agar well diffusion assay against Bacillus strains (Supplementary Figure 8). Type of assay: cell-based. The following applies: 30°C for 18 hours, BHI agar, 5 µg nisin or +2 analogue in 50 µl 0.05% acetic acid. The protocol:
The antimicrobial activity of the hinge region analogs in solid media were tested by an agar well diffusion assay. The diameters of the halos were measured and the residual activity of the analogs were estimated according to the formula of the relationship between the concentration of nisin and the sizes of halos. We made use of the fact that the size of the halo is directly related to the log of nisin concentration. Of course this is an estimate of activity of the variants because any changes in diffusion of the variant bacteriocin or growth rates of indicator bacteria during the assay could also affect the size of the halo. (Table 5 and Supplementary Figure 1). The plates were shown in supplementary data (Supplementary Figures 2–8). […] And against L. lactis at 20°C, the inhibition zone was larger than nisin. […] The M. luteus grows quite fast at room temperature and only the +2 variant retained 55% of the activity of nisin.
Supplementary Figure 7.Agar well diffusion assays of hinge region analogues against Bacillus sporotherm odurans IC4 . 2 µg of peptides w ere added per w ell. The plates were incub ated at 30 ° C […]
Supplementary Figure 8.Agar well diffusion assays of hinge region analogues against 4 kinds of Bacillus strains . 5µl overnight culture was mixed with 5ml BHI agar and poured into the plate. […]
(In general: In agar diffusion tests the substance spreads into inoculated agar from a disc or well.)

For assay [16], the system named is S. aureus. The experiment in a line: Agar well diffusion assay. The settings on record: 20 °C; estimated from halo diameter by nisin standard curve, relative to wt. In kind it is cell-based, Staphylococcus aureus. The protocol:
as §1, §2, §3, §4, §5, §6

Where only a bound is given, the exact number is not on record here.

In the case of `C=C(NC(=O)[C@@H](NC(=O)[C@H](Cc1c[nH]cn1)NC(=O)[C@@H](NC(=O)[C@H](CO)NC(=O)[C@@H]1CS[C@@H](C)[C@H]2NC(=O)[C@H](C)NC(=O)[C@H](NC(=O)[C@H](CCCCN)NC(=O)[C@H](CCSC)NC(=O)[C@@H](NC(=O)[C@@H](NC(=O)[C@H](CC(N)=O)NC(=O)[C@@H]3CS[C@@H](C)[C@@H](NC(=O)[C@H](CCCCN)NC(=O)[C@@H]4CS[C@@H](C)[C@@H](NC(=O)[C@@H]5CSC[C@@H](NC(=O)/C(=C/C)NC(=O)[C@@H](N)[C@@H](C)CC)C(=O)N[C@@H]([C@@H](C)CC)C(=O)NC(=C)C(=O)N[C@@H](CC(C)C)C(=O)N5)C(=O)N5CCC[C@H]5C(=O)NCC(=O)N4)C(=O)NCC(=O)N[C@@H](C)C(=O)N[C@@H](CC(C)C)C(=O)N[C@@H](CCSC)C(=O)NCC(=O)N3)[C@@H](C)CC)C(C)C)[C@H](C)SC[C@H](NC2=O)C(=O)N[C@@H](Cc2c[nH]cn2)C(=O)N1)[C@@H](C)CC)C(C)C)C(=O)N[C@@H](CCCCN)C(=O)O` [+2], the Residual activity in assay [1] is given as 55%; in assay [2] it was 236%; in assay [3] (20 °C), 139%; in assay [3] (30 °C) it was 114%; in [4] (20 °C), 144%; in assay [4] (30 °C) it was 88%. The Residual activity in assay [4] (37 °C) is listed as 101%; in assay [5] (20 °C, estimated from halo diameter by nisin standard curve (halo diameter vs log of nisin concentration)) it was 140%; in assay [5] (30 °C, estimated from halo diameter by nisin standard curve), 114%; in assay [16] it was 22%. For the same compound, the “Residual activity of variants compared to nisin” value in [6] is 25%; in assay [7], 50%; in assay [8], <6%; in [9], 25%; in assay [10], 25%; in assay [11] it was 30%. For the same compound, the “Residual activity of variants compared to nisin” value amounted to 50% in assay [12], 50% in assay [13] and 25% in [14]. For the same compound, the “plate activity compared to nisin” value in assay [15] is reported as “either equal or higher plate activity than nisin”.
